Test results published in patent US6482829B2, “Substituted heterocyclic siprodecane compound active as an antagonist of neurokinin 1 receptor” (Hoffmann-La Roche Inc., priority 2000, dated 2002).

Molecular target: human NK1 receptors (Homo sapiens, UniProt P25103)
Assay: Affinity for the NK1 receptor, [3H]substance P displacement binding assay
Details: human NK1 receptors in CHO cells (Semliki virus expression system); [3H]substance P 0.6 nM; 60 min at room temperature
Description: The affinity of test compounds for the NK1 receptor was evaluated at human NK1 receptors in CHO cells infected with the human NK1 receptor (using the Semliki virus expression system) and radiolabelled with [^3H]substance P (final concentration 0.6 nM). Binding assays were performed in HEPES buffer (50 mM, pH 7.4) containing BSA (0.04%) leupeptin (8 μg/ml), MnCl2 (3 mM) and phosphoramidon (2 μM). Binding assays consisted of 250 μl of membrane suspension (1.25×10^5 cells/assay tube), […] of buffer of displacing agent and 125 μl of [^3H]substance P. Displacement curves were determined with at least seven concentrations of the compound. The assay tubes were incubated for 60 min at room temperature after which time the tube contents were rapidly filtered under vacuum through GF/C filters presoaked for 60 min with PEI (0.3%) with 2×2 ml washes of HEPES buffer (50 mM, pH 7.4). The radioactivity retained on the filters was measured by scintillation counting. All assays were performed in triplicate in at least 2 separate experiments.

human NK1 receptors, sequence (P25103 whole entry): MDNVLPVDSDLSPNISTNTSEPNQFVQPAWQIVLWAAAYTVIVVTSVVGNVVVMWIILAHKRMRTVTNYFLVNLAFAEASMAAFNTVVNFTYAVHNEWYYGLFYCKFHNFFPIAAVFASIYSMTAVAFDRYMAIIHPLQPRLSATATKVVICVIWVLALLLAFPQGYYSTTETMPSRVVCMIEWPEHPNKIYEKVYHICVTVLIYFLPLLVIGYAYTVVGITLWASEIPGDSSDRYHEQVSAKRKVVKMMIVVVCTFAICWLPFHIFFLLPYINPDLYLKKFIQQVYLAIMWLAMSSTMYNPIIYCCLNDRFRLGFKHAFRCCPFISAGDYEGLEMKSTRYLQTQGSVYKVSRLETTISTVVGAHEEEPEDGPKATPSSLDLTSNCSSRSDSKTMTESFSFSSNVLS

Compound | pKi (affinity to the NK-1 receptor)
Rac-8-(3,5-Bis-trifluoromethyl-benzoyl)-3-(2-methoxy-ethyl)-2-methyl-1-o-tolyl-1,3,8-triaza-spiro[4.5]decan-4-one [Example 137] | 8.34
Cc1ccccc1N1CN(Cc2cccnc2)C(=O)C12CCN(C(=O)c1cc(C(F)(F)F)cc(C(F)(F)F)c1)CC2 [Example 45, 8-(3,5-Bis-trifluoromethyl-benzoyl)-3-pyridin-3-yl-methyl-1-o-tolyl-1,3,8-triaza-spiro[4.5]decan-4-one] | 8.29

Same assay, conditions: human NK1 receptors in CHO cells (Semliki virus expression system); [3H]substance P 0.6 nM; 60 min at room temperature; read-out: pKi (affinity to the NK-1 receptor) (converted)

Compound | Ki [nM]
CN1CN(c2ccccc2Cl)C2(CCN(C(=O)c3cc(C(F)(F)F)cc(C(F)(F)F)c3)CC2)C1=O [Example 70, 8-(3,5-Bis-trifluoromethyl-benzoyl)-1-(2-chloro-phenyl)-3-methyl-1,3,8-triaza-spiro[4.5]decan-4-one] | 4.27
CC1NC(=O)C2(CCN(C(=O)c3cc(C(F)(F)F)cc(C(F)(F)F)c3)CC2)N1c1ccccc1 (racemic) [Example 91, (rac)-8-(3,5-Bis-trifluoromethyl-benzoyl)-2-methyl-1-phenyl-1,3,8-triaza-spiro[4.5]decan-4-one] | 7.59
COc1nc(OC)nc(N2CN(c3ccccc3)C3(CCN(C(=O)c4cc(C(F)(F)F)cc(C(F)(F)F)c4)CC3)C2=O)n1 [Example 6, 8-(3,5-Bis-trifluoromethyl-benzoyl)-3-(4,6-dimethoxy-[1,3,5]triazin-2-yl)-1-phenyl-1,3,8-triaza-spiro[4.5]decan-4-one] | 2.19
O=C(c1cc(C(F)(F)F)cc(C(F)(F)F)c1)N1CCC2(CC1)C(=O)N(c1ncc(Cl)cc1Cl)CN2c1ccccc1 [Example 26, 8-(3,5-Bis-trifluoromethyl-benzoyl)-3-(3,5-dichloro-pyridin-2-yl)-1-phenyl-1,3,8-triaza-spiro[4.5]decan-4-one] | 33.9
Cc1ccccc1C1CNC(=O)C12CCN(C(=O)c1cc(C(F)(F)F)cc(C(F)(F)F)c1)CC2 (racemic) [Example 176, (rac)-8-(3,5-Bis-trifluoromethyl-benzoyl)-4-o-tolyl-2,8-diaza-spiro[4.5]decan-1-one] | 7.59
COc1nc(OC)nc(N2CN(c3ccc(Cl)c(Cl)c3)C3(CCN(C(=O)c4cc(C(F)(F)F)cc(C(F)(F)F)c4)CC3)C2=O)n1 [Example 39, 8-(3,5-Bis-trifluoromethyl-benzoyl)-1-(3,4-dichloro-phenyl)-3-(4,6-dimethoxy-[1,3,5]triazin-2-yl)-1,3,8-triaza-spiro[4.5]decan-4-one] | 93.3
Cc1ccccc1N1CN(CCN2CCCC2)C(=O)C12CCN(C(=O)c1cc(C(F)(F)F)cc(C(F)(F)F)c1)CC2 [Example 58, 8-(3,5-Bis-trifluoromethyl-benzoyl)-3-(2-pyrrolidin-1-yl-ethyl)-1-o-tolyl-1,3,8-triaza-spiro[4.5]decan-4-one] | 8.32
Cc1ccccc1C1=CN(C)C(=O)C12CCN(C(=O)c1cc(C(F)(F)F)cc(C(F)(F)F)c1)CC2 [Example 170, 8-(3,5-Bis-trifluoromethyl-benzoyl)-2-methyl-4-o-tolyl-2,8-diaza-spiro[4.5]dec-3-en-1-one] | 11

Tested on: not given
Assay: not given
Details: not given

Compound | melting point [°C]
O=C(c1cc(C(F)(F)F)cc(C(F)(F)F)c1)N1CCC2(CC1)C(=O)NCN2c1ccc(Cl)c(Cl)c1 [Example 65, 8-(3,5-Bis-trifluoromethyl-benzoyl)-1-(3,4-dichloro-phenyl)-1,3,8-triaza-spiro[4.5]decan-4-one] | 220 to 222
O=C(c1cc(C(F)(F)F)cc(C(F)(F)F)c1)N1CCC2(CC1)C(=O)NC(=O)N2c1ccccc1Cl | 153 to 154
O=C(c1cc(C(F)(F)F)cc(C(F)(F)F)c1)N1CCC2(CC1)C(=O)NCN2c1cccc(Cl)c1 [Example 63, 8-(3,5-Bis-trifluoromethyl-benzoyl)-1-(3-chloro-phenyl)-1,3,8-triaza-spiro[4.5]decan-4-one] | 235 to 236
O=C(c1cc(C(F)(F)F)cc(C(F)(F)F)c1)N1CCC2(CC1)C(=O)NCN2c1ccc(Cl)cc1 [Example 64, 8-(3,5-Bis-trifluoromethyl-benzoyl)-1-(4-chloro-phenyl)-1,3,8-triaza-spiro[4.5]decan-4-one] | 233 to 235
O=C(c1cc(C(F)(F)F)cc(C(F)(F)F)c1)N1CCC2(CC1)C(=O)N(c1cc(Cl)ncn1)CN2c1ccccc1 [Example 61, 8-(3,5-Bis-trifluoromethyl-benzoyl)-3-(6-chloro-pyrimidin-4-yl)-1-phenyl-1,3,8-triaza-spiro[4.5]decan-4-one] | 212 to 214
O=C(c1cc(C(F)(F)F)cc(C(F)(F)F)c1)N1CCC2(CC1)C(=O)NCN2c1ccccc1 [Example 1, 8-(3,5-Bis-trifluoromethyl-benzoyl)-1-phenyl-1,3,8-triaza-spiro[4.5]decan-4-one] | 251
O=C(c1cc(C(F)(F)F)cc(C(F)(F)F)c1)N1CCC2(CC1)C(=O)NCN2c1ccccc1Cl [Example 67, 8-(3,5-Bis-trifluoromethyl-benzoyl)-1-(2-chloro-phenyl)-1,3,8-triaza-spiro[4.5]decan-4-one] | 157 to 159
Cc1ccccc1N1CNC(=O)C12CCN(C(=O)c1cc(C(F)(F)F)cc(C(F)(F)F)c1)CC2 [Example 66, 8-(3,5-Bis-trifluoromethyl-benzoyl)-1-o-tolyl-1,3,8-triaza-spiro[4.5]decan-4-one] | 164 to 168
